Data published in article PMC4995097, “Talin-KANK1 interaction controls the recruitment of cortical microtubule stabilizing complexes to focal adhesions” (eLife, 2016).

Test system: HA-KANK1
Assay: Streptavidin pull down of BioGFP-talin1 constructs with HA-KANK1, Western blot
Type: binding
Conditions: HEK293T cells
Description: BioGFP-tagged KANK1 mutants were constructed using PCR and pBioGFP-C1 vector as previously described ([van der Vaart et al., 2013]). Rescue constructs for BioGFP-tagged KANK1 were either based on the version previously described ([van der Vaart et al., 2013]) or a version obtained by PCR-based mutagenesis of the sequence […] to […]. mCherry-tagged paxillin construct was made by replacing GFP from pQC-GPXN ([Bouchet et al., 2011]) by mCherry (pmCherry-C1, Clontech). TagRFP-tagged paxillin construct was made by PCR-based amplification and cloning in pTagRFP-T-C1 (kind gift from Y. Mimori-Kiyosue, Riken Institute, Japan). HA-tagged KANK1 construct was generated by cloning KANK1 coding sequence into pMT2-SM-HA (gift of C. Hoogenraad, Utrecht University, The Netherlands). pLVX-IRES-Neo (pLVIN) vectors was constructed by cloning the IRES-neomycin resistance cassette from the pQCXIN plasmid (Clontech) into the pLVX-IRES-Puro plasmid (Clontech). […]
Streptavidin-based pull down assays of biotinylated proteins expressed using pBioGFP-C1 constructs transfected in HEK293T cells was performed and analyzed as previously described ([van der Vaart et al., 2013]). […] For RP-nanoLC-MS/MS, samples were resuspended in 10% formic acid (FA) / 5% DMSO and was analyzed using a Proxeon Easy-nLC100 (Thermo Scientific) connected to an Orbitrap Q-Exactive mass spectrometer. […]

## GFP-talin1-G1404L: GFP-tagged mouse talin1 with single point mutation G1404L
  interaction of talin1 constructs with KANK1 (in words): abrogated the interaction of full-length talin1 or its R7 fragment with full-length KANK1
